# Data reported in US10668068B2, “Treating cancer with drug combinations” (The Research Foundation for The State University of New York, priority 2015, dated 2020).
# Legend:
# [1] = system: EGFR, HER2, Her3 and ErbB4; assay: Western blotting of EGFR family activation and downstream Akt/Erk in BT474 cells; type: cell-based, human; conditions: 2 hours; for phosphorylation (activation) of EGFR family: ibrutinib 0.05 or 0.1 μM, AVL-292 0.1 μM
# Protocol: (§1) Immunoblotting was performed essentially as described previously. Equal amounts of proteins were used. Antibodies used were anti-EGFR (1:1000,), anti-HER2 (1:1000,), anti-ERBB3, ERBB4 antibody, anti-BTK, anti-AKT, ERIK, anti-PLCγ1, PLCγ2 and anti-PARP (1:1000, cell signaling), anti-Flag antibody (1:1000, Sigma), anti-rabbit IgG-HRP and mouse IgG-HRP (1:5000, Jackson ImmunoResearch).
# breast cancer cells = conditions: cited from earlier work
# BT474 cells [2] = assay: Cell growth assay (live cell count), monolayer culture; type: cell-based, human; conditions: 0.01 μM, 3 days
# Description: (§2) For live cell counts, cell growth on 96-well plates were fixed 4% formaldehyde and counterstained with Hoechst 33342 for nuclei.
# [3] = system: BT474 human breast cancer cells; assay: Cell cycle analysis (propidium iodide, flow cytometry); type: cell-based
# Protocol: After trypsinized, cells were collected and washed with cold PBS. Cells were fixed with 70% ethanol, washed and stained with PI/Triton X-100 staining solution (0.1% triton X-100, 2 μg/ml PI and 0.2 mg/ml DNAse-free RNAse) for 30 min. Samples were analyzed by flow cytometry.
# BT474 cells [4] = assay: Nine days NRG1 co-treatment, crystal violet staining; type: cell-based, human; conditions: 9 days, drug 1 uM, NRG1 50 ng/ml
# Protocol: (§3) Cells were cultured in 6-well plates for indicated days. Cells were fixed with 3.7% paraformaldehyde for 10 min and washed with PBS. After wash, cells were stained with 0.05% CV for 30 min Whole plate was washed with tape water. Dry plate was added with 0.5 ml methanol to solubilize the dye. Taking an aliquot to 96-well plate and reading CV stain with OD 540. Tumorospheres were counted under low magnification.
# SKBR3 cells [5] = assay: as above; type: cell-based, human; conditions: 9 days, drug 1 uM, NRG1 50 ng/ml
# Protocol: as §3
# AKT = assay: Immunoblots of NRG1 effect on HER2, AKT and ERK activation in BT474 and SkBR3 cells; type: cell-based, human; conditions: 2 h
# Protocol: as §1
# xenografts of SKBR3 = system: xenografts of SKBR3
# Protocol: NOD/SCID mice were purchased from Jackson Lab (The Jackson Laboratory, Bar Harbor, Me., USA). All mouse procedures were approved by the Animal Care and Use Committees of SUNY Albany and performed in accordance with institutional policies.
# For xenograft tumor studies, 1×10^6 SKBR3 cells were suspended in 50 μl Matrigel (BD Biosciences) diluted 1:2 with DMEM and injected into mammary fat pad. Treatment began when tumors were palpable. […] The tumor volume in mm^3 is calculated by the formula: volume=(width)^2×length/2 every 7 days.
# [6] = system: HER2-positive breast cancer cells; assay: Apoptosis assay (Alexa Fluor 488 annexin V)
# [7] = system: HER2-positive breast cancer cells; assay: Live cell count with NRG1 or EGF (growth factor driven rescue)
# BTK-C = target: T1, BTK-C (Homo sapiens, UniProt Q06187); assay: Inhibition of BTK-C kinase activity / activating phosphorylation (FIG. 8A-C); type: cell-based
# T1 construct: Flag; expressed in transfected cells; host or cells: SKBR3-BTK-C (SKBR3 human breast cancer cells expressing BTK-C)
# T1 sequence (Q06187 1-693 isoform Q06187-2): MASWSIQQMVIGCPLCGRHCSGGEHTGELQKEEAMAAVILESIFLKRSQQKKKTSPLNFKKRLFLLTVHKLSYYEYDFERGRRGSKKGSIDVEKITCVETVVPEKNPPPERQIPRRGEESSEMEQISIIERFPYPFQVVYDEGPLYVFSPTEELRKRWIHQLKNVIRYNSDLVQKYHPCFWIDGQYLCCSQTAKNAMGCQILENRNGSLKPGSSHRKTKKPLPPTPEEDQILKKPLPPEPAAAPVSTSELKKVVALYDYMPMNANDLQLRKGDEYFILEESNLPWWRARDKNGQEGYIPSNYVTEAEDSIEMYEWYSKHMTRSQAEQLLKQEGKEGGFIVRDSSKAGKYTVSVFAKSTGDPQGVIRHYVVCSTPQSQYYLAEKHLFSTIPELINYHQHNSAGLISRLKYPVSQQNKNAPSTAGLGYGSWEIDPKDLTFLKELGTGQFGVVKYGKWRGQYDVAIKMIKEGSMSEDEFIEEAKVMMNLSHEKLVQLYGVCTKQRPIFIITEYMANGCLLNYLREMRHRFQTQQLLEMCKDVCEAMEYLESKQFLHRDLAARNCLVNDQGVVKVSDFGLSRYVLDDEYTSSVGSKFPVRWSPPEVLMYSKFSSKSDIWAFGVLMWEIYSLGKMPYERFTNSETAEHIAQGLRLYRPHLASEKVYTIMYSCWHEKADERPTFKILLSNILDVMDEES
# SKBR3 cells [8] = assay: Cell growth assay (live cell count); type: cell-based, human; conditions: 1 μM, 3 days
# Description: as §2
# [9] = system: HER2-positive breast cancer cells; assay: Cell growth assay (live cell count); type: cell-based; conditions: Homo sapiens, 72 h; 3 days of culture; read-out: IC50 for effect on HER2-positive breast cancer cells
# Description: as §2
structure (smiles),measurement,setting,value
Cc1c(NC(=O)c2ccc(C(C)(C)C)cc2)cccc1-c1cn(C)c(=O)c(Nc2ccc(C(=O)N3CCOCC3)cc2)n1 [CGI-1746],phosphorylation (activation) of EGFR family,[1],"but not AVL-292 and CGI-1746, efficiently blocks activation of EGFR, HER2, ErbB3, and ErbB4"
C/C(O)=C(\C#N)C(=O)Nc1cc(Br)ccc1Br [LFM-A13],apoptosis levels,breast cancer cells,increase apoptosis levels
CS(=O)(=O)CCNCc1ccc(-c2ccc3ncnc(Nc4ccc(OCc5cccc(F)c5)c(Cl)c4)c3c2)o1 [lapatinib],reduction of cell numbers,BT474 cells [2]; monolayer,fails to reduce HER2-positive breast cancer cell numbers significantly
same,Akt and Erk phosphorylation / downstream signaling,[1],inhibits both AKT and ERK phosphorylation
same,G1-S arrest,[3]; 24 hours,appreciable G1-S arrest
same,drug resistance after NRG1 co-treatment,BT474 cells [4],yields cells that exhibit lapatinib resistance
same,drug resistance after NRG1 co-treatment,SKBR3 cells [5],yields cells that exhibit lapatinib resistance
same,re-activation of AKT by NRG1,AKT; co-treatment with NRG1 50 ng/ml,NRG1 re-activates AKT without activation of HER2
same,"activation of HER2, AKT and ERK",AKT; drug alone,blocked
same,potency in SKBR3 tumor xenograft compared with ibrutinib 12 mg/kg/day,xenografts of SKBR3; lapatinib 75 mg/kg/day p.o.,less potent
same,number of apoptotic cells,"[6]; 0.05 or 0.1 μM, 24 hours",increase in the number of apoptotic cells
same,rescue from growth inhibition by NRG1,"[7]; 50 ng/ml of NRG1, 3 days",NRG1 application is able to rescue
same,cell growth suppression,"[7]; drug without growth factor, 3 days",potently suppresses cell growth
"C=CC(=O)Nc1cccc(Nc2nc(Nc3ccc(OCCOC)cc3)ncc2F)c1 [AVL-292, N-(3-((5-fluoro-2((4-(2-methoxyethoxy)phenyl)amino)pyrimidin-4-yl)amino)phenyl)acrylamide]",BTK-C activating phosphorylation,BTK-C; FIG. 8C,inhibit BTK-C activating phosphorylation
same,inhibition of BTK-C kinase activity,BTK-C; compared with ibrutinib,inhibit BTK-C kinase activity to the same degree as ibrutinib
same,phosphorylation (activation) of EGFR family,[1],does not block EGFR family signaling pathway activation
C=CC(=O)N1CCC[C@@H](n2nc(-c3ccc(Oc4ccccc4)cc3)c3c(N)ncnc32)C1 [ibrutinib],reduction of cell numbers,SKBR3 cells [8],more than 80%
same,"cell population, % of control",BT474 cells [2]; BT474 monolayer,30 % of control
same,IC50,[9],30 nM
same,decrease in the number of cells in the S phase,"[3]; 0.03 μM, compared with controls",50%
same,tumor volume smaller than vehicle control / inhibition of tumor growth,"xenografts of SKBR3; 12 mg/kg/day p.o., day 28",45%
same,apoptosis induction compared with lapatinib,[6]; HER2-positive breast cancer cells,1.5 fold
